According to patent publication US8772250B2, “Compositions and methods for treating ischemia and ischemia-reperfusion injury” (Ischemix, LLC, priority 2010, dated 2014):
Read-outs that look alike come from different tables or passages of the source. Marks after values point to notes of the source that are not given here.

Legend:
[1] = system: myocardial ischemia-reperfusion injury; test: Rat model of myocardial I/R injury (MI/AR ratio); assay type: in vivo; details: for % Reduction in MI/AR Compared to Vehicle: rat IV
Source text: A rat model of myocardial I/R injury was used as an in vivo screen to determine if certain lipoic acid derivative compounds are cardio-protective (e.g., against mycoardial ischemia-reperfusion injury). This model is analogous to the ischemia-reperfusion injury observed in cardiac patients following coronary occlusions and cardiac surgery procedures, such as coronary artery bypass grafting (CABG) (Matsui, T., Tao, J., del Monte, F., Lee, K.-H. et al., Akt Activation Preserves Cardiac Function and Prevents Injury After Transient Cardiac Ischemia In vivo, Circulation 2001, 104:330).
The circumflex branch of the left coronary artery was ligated temporarily to induce regional ischemia in the left ventricular mass, followed by the injection of fluorescent microspheres to delineate the ischemic region. The animals were sacrificed about 24 hours after reperfusion and the hearts were excised, sectioned and stained with triphenyltetrazolium. The direct impact of the pharmacologic intervention was determined by measuring the myocardial infarct area (MI), the ischemic area at risk (AR) and the left ventricular area (LV). The reduction of MI over the AR (MI/AR ratio) was used as the primary measure of drug efficacy relative to vehicle controls.
Male Sprague-Dawley rats between 300 and 350 gm were used for these experiments. Anesthesia was induced with 3-4% isoflurane in an induction chamber. After induction, anesthesia was maintained at a surgical plane with 1.5-2.0% isoflurane, administered by a Rodent Ventilator through a 16-gauge angiocatheter introduced orally into the trachea. The ventilator was set at 2.5 cc at a rate of 60-65 breaths per minute to maintain ventilation during surgery. The core temperature of the animal was monitored and maintained at 37° C. using a rectal probe and a heating lamp attached to a temperature controller.
A left anterior thoracotomy was performed and the heart was exposed using a vertical pericardotomy. The circumflex branch of the left coronary artery (LCx) was ligated approximately 4 mm from the aorta using a cardiovascular 7.0 monofilament suture on an 11 mm needle to induce ischemia in the left ventricle.
Fluorescent microspheres (300 μL) were injected into the left ventricular cavity 10-20 minutes after the ligation to delineate the ischemic area. The suture was removed 30 minutes after ligation to reperfuse the ischemic area and the ischemic area was checked for reperfusion.
The chest was then closed in layers using absorbable suture (Dexon 5-0) for the muscle layers and monofilament Nylon 5-0 suture was used to close the cutaneous layer. The animals were allowed to recover, then were returned to the colony.
Twenty-four hours after reperfusion, anesthesia was induced using ketamine hydrochloride and the chest was opened. The animals were sacrificed with 15% potassium chloride aqueous solution (w/v) injected into the LV cavity to arrest the heart in diastole. The heart was excised distal to the aortic valve and washed with saline to remove the blood. Sagittal slices of the heart were obtained between the base of the ventricle and the apex. Five slices of heart tissue were obtained, each 2 mm thick. The slices were immersed in a 1% 2,3,5-triphenyl-2H-tetrazolium chloride (TTC) in saline solution and then stored in the dark for 30 minutes to stain.
Images of the slices were obtained under bright field (to observe the TTC staining) and under fluorescence (to observe the microspheres). The area at risk was determined by the absence of microspheres and the infarct area was determined by the absence of TTC staining.
In vivo experiments employing a rat model of myocardial I/R injury were performed as described in Example 8. Catheterized (jugular vein) rats were used for intravenous dose administration at time points prior to and/or including 0.25 h.

[2] = Pharmacokinetic evaluation in rats; assay type: in vivo; details: both sexes, rat
Description: To evaluate systemic exposure to RLip-EA-OH, groups of rats were given single intravenous infusion doses of vehicle (2/sex) or RLip-EA-OH at the same dose levels of 30, 100, or 200 mg/kg (6/sex/group). For the vehicle-treated group, blood samples were collected from all rats at pre-dose and at 30 minutes (+2 minutes) post-dose only. For RLip-EA-OH-treated groups, blood samples were collected from three rats/sex/group at 10 minutes, 30 minutes, 45 minutes and 1, 2, 3, and 4 hours (±2 minutes) after dosing.
Administration was by IV infusion into a surgically-placed catheter in the femoral vein using a syringe pump at a rate of injection no greater than 0.2 mL/min. The dose volume for each animal was based on the most recent body weight measurement and doses were rounded to the nearest 0.1 mL. […]
Samples were placed in tubes containing K3EDTA and stored on ice until centrifuged, under refrigeration, for at least ten minutes at 3000 rpm. After centrifugation, plasma was removed and stored frozen at or below minus 70° C. until shipped to BASi in West Lafayette, Ind. for analysis.
Plasma RLip-EA-OH concentrations were measured at BASi in West Lafayette, Ind., using a validated LC/MS/MS method with positive turbo ion spray, in the multiple reaction-monitoring mode. The quantifiable range for the assay was 0.05 to 50 μg/mL and QC samples were included at 0.15, 10 and 37.5 μg/mL. Toxicokinetic analysis was performed using WinNonlin version 5.1 by calculation of standard parameters.

In the case of `C[C@H](NC(=O)[C@H](CCC(=O)O)NC(=O)CCCC[C@@H]1CCSS1)C(=O)O` [RLip-EA-OH, N-(R)-lipoyl-L-glutamyl-L- alanine], the “% Reduction in MI/AR Compared to Vehicle” value ([1]; Entry 2b: 3 mg/kg (1 h infusion) at −1 h) is reported as 12%, the “% Reduction in MI/AR Compared to Vehicle” value ([1]; Entry 5: 15 mg/kg at −0.25 h) is reported as 30* % and the “% Reduction in MI/AR Compared to Vehicle” value ([1]; Entry 7: 10 mg/kg at −3 h) is reported as 33* %. The “% Reduction in MI/AR Compared to Vehicle” value ([1]; Entry 12: 10 and 10 mg/kg at −3 and −0.25 h) was 43* %, the “% Reduction in MI/AR Compared to Vehicle” value ([1]; Entry 13: 20 and 10 mg/kg at −3 and −0.25 h) was 38* % and the “% Reduction in MI/AR Compared to Vehicle” value ([1]; Entry 16: 10 and 10 and 10 mg/kg at −3 and −0.25 h and at reperfusion) was 15%. For the same compound, the “% Reduction in MI/AR compared to vehicle controls” value ([1]; rat, Table 11: 10 mg/kg at −3 h) was 29%, the “reduction of MI (meta-analysis)” value ([1]; rat, multiple dosing 10 mg/kg at −3 h and −0.25 h) was 43% and the AUC(0-inf) ([2]; plasma, 30 mg/kg IV infusion) was about 7000 ng·h/mL. For the same compound, the Cmax ([2]; plasma, 30 mg/kg IV infusion) was 20000 ng/mL, the clearance ([2]; plasma, 30 mg/kg IV infusion) was 75 mL/min/kg and the Vd ([2]; plasma, 30 mg/kg IV infusion, read-out: Vss) was 1.2 L/kg. It also gave a half-life ([2]; plasma, 30 mg/kg IV infusion, read-out: t½ (converted)) of 9 min and a half-life ([2]; serum, intravenous, rats, dose of 30 mg/kg, read-out: serum half-life) of about 9 min.
